Experiments:
Type in all cases: in vivo
kochia (Kochia scoparia) = assay: Test C greenhouse herbicide test, postemergence
How it was run: (§1)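 Postemergence foliar treatment, 1- to 4-leaf stage (2–18 cm), peat/vermiculite medium; greenhouse 13–15 d; visual rating vs controls, 0 = no effect, 100 = complete control; dash = no result.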

[1] = test system: oat, wild (wild oat, Avena fatua); assay: Test C greenhouse herbicide test, postemergence
How it was run: as §1

[2] = test system: lambsquarters (Chenopodium album); assay: Test C greenhouse herbicide test, pre- and postemergence
Source text: (§2) Seeds of plant species selected from blackgrass (Alopecurus myosuroides), ryegrass, Italian (Italian ryegrass, Lolium multiflorum), wheat (winter wheat, Triticum aestivum), galium (catchweed bedstraw, Galium aparine), corn (Zea mays), large crabgrass, large (large crabgrass, Digitaria sanguinalis), foxtail, giant (giant foxtail, Setaria faberii), johnsongrass (Sorghum halepense), lambsquarters (Chenopodium album), morningglory (Ipomoea coccinea), nutsedge, yellow (yellow nutsedge, Cyperus esculentus), pigweed (Amaranthus retroflexus), ragweed (common ragweed, Ambrosia elatior), soybean (Glycine max), barnyardgrass (Echinochloa crus-galli), oilseed rape (Brassica napus), waterhemp (common waterhemp, Amaranthus rudis), and velvetleaf (Abutilon theophrasti) were planted into a blend of loam soil and sand and treated preemergence with test chemicals formulated in a non-phytotoxic solvent mixture which included a surfactant.
(§3) At the same time, plants selected from these crop and weed species and also chickweed (common chickweed, Stellaria media), kochia (Kochia scoparia), and oat, wild (wild oat, Avena fatua), were planted in pots containing Redi-Earth® planting medium (Scotts Company, 14111 Scottslawn Road, Marysville, Ohio 43041) comprising spaghnum peat moss, vermiculite, wetting agent and starter nutrients and treated with postemergence applications of test chemicals formulated in the same manner. Plants ranged in height from 2 to 18 cm (1- to 4-leaf stage) for postemergence treatments. Treated plants and controls were maintained in a greenhouse for 13 to 15 d, after which time all species were compared to controls and visually evaluated. Plant response ratings, summarized in Table C, are based on a scale of 0 to 100 where 0 is no effect and 100 is complete control. A dash (-) response means no test result.

[3] = test system: barnyardgrass (Echinochloa crus-galli); assay: as above
Source text: as §2, §3

[4] = test system: velvetleaf (Abutilon theophrasti); assay: as above
Source text: as §2, §3

[5] = test system: morningglory (Ipomoea coccinea); assay: as above
Source text: as §2, §3

[6] = test system: waterhemp (common waterhemp, Amaranthus rudis); assay: as above
Source text: as §2, §3

corn (Zea mays) = assay: as above
Source text: as §2, §3

[7] = test system: crabgrass, large (large crabgrass, Digitaria sanguinalis); assay: as above
Source text: as §2, §3

[8] = test system: nutsedge, yellow (yellow nutsedge, Cyperus esculentus); assay: as above
Source text: as §2, §3

[9] = test system: pigweed (Amaranthus retroflexus); assay: as above
Source text: as §2, §3

[10] = test system: oilseed rape (Brassica napus); assay: as above
Source text: as §2, §3

[11] = test system: wheat (winter wheat, Triticum aestivum); assay: as above
Source text: as §2, §3

[12] = test system: foxtail, giant (giant foxtail, Setaria faberii); assay: as above
Source text: as §2, §3

[13] = test system: johnsongrass (Sorghum halepense); assay: as above
Source text: as §2, §3

[14] = test system: blackgrass (Alopecurus myosuroides); assay: as above
Source text: as §2, §3

[15] = Postemergence, 31 g ai/ha, 0 to 100 scale (0 no effect, 100 complete control)
[16] = Postemergence, 125 g ai/ha, scale 0 to 100, 0 is no effect, 100 is complete control
[17] = Postemergence, 250 g ai/ha, scale 0 to 100, 0 no effect, 100 complete control, 13 to 15 d
[18] = postemergence, 62 g ai/ha, scale 0 to 100, 0 no effect, 100 complete control
[19] = Preemergence, 31 g ai/ha, scale 0 to 100, 0 is no effect, 100 is complete control
[20] = Preemergence, 62 g ai/ha, scale 0 to 100, 0 is no effect, 100 is complete control
[21] = Preemergence, 125 g ai/ha, scale 0 to 100, 0 is no effect, 100 is complete control
[22] = Preemergence, 250 g ai/ha, scale 0 to 100 (0 no effect, 100 complete control)

SMILES: CCC(=O)Oc1c(C)nn(C)c(=O)c1-c1c(C)sc2c(C)cc(C)cc12 [Compound 28]
- Kochia plant response rating (kochia (Kochia scoparia); [15]): 70
- Plant response rating, Kochia (kochia (Kochia scoparia); [16]): 95
- Plant response rating, Kochia (kochia (Kochia scoparia); [17]): 100
- Kochia plant response rating (kochia (Kochia scoparia); [18]): 70
- Oat, Wild plant response rating [1, 15]: 95
- Plant response rating, Oat, Wild [1, 16]: 100
- Plant response rating, Oat, Wild [1, 17]: 100
- Oat, Wild plant response rating [1, 18]: 95
- Lambsquarters plant response rating [2, 15]: 85
- Plant response rating, Lambsquarters [2, 16]: 100
- Plant response rating, Lambsquarters [2, 17]: 100
- Plant response rating, Lambsquarters [2, 19]: 65
- Plant response rating, Lambsquarters [2, 20]: 85
- Plant response rating, Lambsquarters [2, 21]: 85
- Lambsquarters plant response rating [2, 22]: 90
- Lambsquarters plant response rating [2, 18]: 98
- Barnyardgrass plant response rating [3, 15]: 20
- Plant response rating, Barnyardgrass [3, 16]: 35
- Plant response rating, Barnyardgrass [3, 17]: 40
- Plant response rating, Barnyardgrass [3, 19]: 45
- Plant response rating, Barnyardgrass [3, 20]: 75
- Plant response rating, Barnyardgrass [3, 21]: 90
- Barnyardgrass plant response rating [3, 22]: 95
- Barnyardgrass plant response rating [3, 18]: 25
- Velvetleaf plant response rating [4, 15]: 70
- Plant response rating, Velvetleaf [4, 16]: 85
- Plant response rating, Velvetleaf [4, 17]: 90
- Plant response rating, Velvetleaf [4, 20]: 85
- Plant response rating, Velvetleaf [4, 21]: 90
- Velvetleaf plant response rating [4, 22]: 95
- Velvetleaf plant response rating [4, 18]: 85
- Morningglory plant response rating [5, 15]: 95
- Plant response rating, Morningglory [5, 16]: 100
- Plant response rating, Morningglory [5, 17]: 100
- Plant response rating, Morningglory [5, 19]: 80
- Plant response rating, Morningglory [5, 20]: 98
- Plant response rating, Morningglory [5, 21]: 98
- Morningglory plant response rating [5, 22]: 100
- Morningglory plant response rating [5, 18]: 98
- Waterhemp plant response rating [6, 15]: 60
- Plant response rating, Waterhemp [6, 16]: 85
- Plant response rating, Waterhemp [6, 17]: 85
- Plant response rating, Waterhemp [6, 20]: 75
- Plant response rating, Waterhemp [6, 21]: 85
- Waterhemp plant response rating [6, 22]: 100
- Waterhemp plant response rating [6, 18]: 75
- Corn plant response rating (corn (Zea mays); [15]): 5
- Plant response rating, Corn (corn (Zea mays); [16]): 5
- Plant response rating, Corn (corn (Zea mays); [17]): 15
- Plant response rating, Corn (corn (Zea mays); [19]): 0
- Plant response rating, Corn (corn (Zea mays); [20]): 0
- Plant response rating, Corn (corn (Zea mays); [21]): 30
- Corn plant response rating (corn (Zea mays); [22]): 15
- Corn plant response rating (corn (Zea mays); [18]): 5
- Crabgrass, Large plant response rating [7, 15]: 25
- Plant response rating, Crabgrass, Large [7, 16]: 40
- Plant response rating, Crabgrass, Large [7, 17]: 45
- Plant response rating, Crabgrass, Large [7, 19]: 25
- Plant response rating, Crabgrass, Large [7, 20]: 60
- Plant response rating, Crabgrass, Large [7, 21]: 80
- Crabgrass, Large plant response rating [7, 22]: 85
- Crabgrass, Large plant response rating [7, 18]: 20
- Nutsedge, Yellow plant response rating [8, 15]: 75
- Plant response rating, Nutsedge, Yellow [8, 16]: 85
- Plant response rating, Nutsedge, Yellow [8, 17]: 90
- Plant response rating, Nutsedge, Yellow [8, 19]: 50
- Plant response rating, Nutsedge, Yellow [8, 20]: 75
- Plant response rating, Nutsedge, Yellow [8, 21]: 85
- Nutsedge, Yellow plant response rating [8, 22]: 70
- Nutsedge, Yellow plant response rating [8, 18]: 85
- Pigweed plant response rating [9, 15]: 60
- Plant response rating, Pigweed [9, 16]: 90
- Plant response rating, Pigweed [9, 17]: 90
- Plant response rating, Pigweed [9, 19]: 100
- Plant response rating, Pigweed [9, 20]: 100
- Plant response rating, Pigweed [9, 21]: 100
- Pigweed plant response rating [9, 22]: 100
- Pigweed plant response rating [9, 18]: 85
- Oilseed Rape plant response rating [10, 15]: 5
- Plant response rating, Oilseed Rape [10, 16]: 5
- Plant response rating, Oilseed Rape [10, 17]: 70
- Plant response rating, Oilseed Rape [10, 19]: 0
- Plant response rating, Oilseed Rape [10, 20]: 20
- Plant response rating, Oilseed Rape [10, 21]: 85
- Oilseed Rape plant response rating [10, 22]: 90
- Oilseed Rape plant response rating [10, 18]: 60
- Wheat plant response rating [11, 15]: 0
- Plant response rating, Wheat [11, 16]: 0
- Plant response rating, Wheat [11, 17]: 5
- Plant response rating, Wheat [11, 20]: 0
- Plant response rating, Wheat [11, 21]: 0
- Wheat plant response rating [11, 22]: 10
- Wheat plant response rating [11, 18]: 0
- Foxtail, Giant plant response rating [12, 15]: 60
- Plant response rating, Foxtail, Giant [12, 16]: 85
- Plant response rating, Foxtail, Giant [12, 17]: 95
- Plant response rating, Foxtail, Giant [12, 19]: 85
- Plant response rating, Foxtail, Giant [12, 20]: 100
- Plant response rating, Foxtail, Giant [12, 21]: 100
- Foxtail, Giant plant response rating [12, 22]: 100
- Foxtail, Giant plant response rating [12, 18]: 80
- Johnsongrass plant response rating [13, 15]: 5
- Plant response rating, Johnsongrass [13, 17]: 30
- Plant response rating, Johnsongrass [13, 19]: 0
- Plant response rating, Johnsongrass [13, 20]: 0
- Plant response rating, Johnsongrass [13, 21]: 5
- Johnsongrass plant response rating [13, 22]: 10
- Johnsongrass plant response rating [13, 18]: 5
- Blackgrass plant response rating [14, 15]: 50
- Plant response rating, Blackgrass [14, 16]: 80
- Plant response rating, Blackgrass [14, 17]: 90
- Plant response rating, Blackgrass [14, 19]: 85
- Plant response rating, Blackgrass [14, 20]: 90
- Plant response rating, Blackgrass [14, 21]: 90
- Blackgrass plant response rating [14, 22]: 90
- Blackgrass plant response rating [14, 18]: 70

SMILES: COc1nn(C)c(=O)c(-c2c(C)sc3ccccc23)c1O [Compound 33]
- Kochia plant response rating (kochia (Kochia scoparia); [15]): 20
- Plant response rating, Kochia (kochia (Kochia scoparia); [16]): 40
- Plant response rating, Kochia (kochia (Kochia scoparia); [17]): 50
- Kochia plant response rating (kochia (Kochia scoparia); [18]): 5
- Oat, Wild plant response rating [1, 15]: 35
- Plant response rating, Oat, Wild [1, 16]: 40
- Plant response rating, Oat, Wild [1, 17]: 45
- Oat, Wild plant response rating [1, 18]: 30
- Lambsquarters plant response rating [2, 15]: 90
- Plant response rating, Lambsquarters [2, 16]: 98
- Plant response rating, Lambsquarters [2, 17]: 100
- Lambsquarters plant response rating [2, 18]: 95
- Barnyardgrass plant response rating [3, 15]: 25
- Plant response rating, Barnyardgrass [3, 16]: 50
- Plant response rating, Barnyardgrass [3, 17]: 80
- Barnyardgrass plant response rating [3, 18]: 25
- Velvetleaf plant response rating [4, 15]: 10
- Plant response rating, Velvetleaf [4, 16]: 75
- Plant response rating, Velvetleaf [4, 17]: 85
- Velvetleaf plant response rating [4, 18]: 60
- Morningglory plant response rating [5, 15]: 85
- Plant response rating, Morningglory [5, 16]: 95
- Plant response rating, Morningglory [5, 17]: 98
- Morningglory plant response rating [5, 18]: 95
- Waterhemp plant response rating [6, 15]: 25
- Plant response rating, Waterhemp [6, 16]: 65
- Plant response rating, Waterhemp [6, 17]: 75
- Waterhemp plant response rating [6, 18]: 30
- Corn plant response rating (corn (Zea mays); [15]): 0
- Plant response rating, Corn (corn (Zea mays); [16]): 5
- Plant response rating, Corn (corn (Zea mays); [17]): 20
- Corn plant response rating (corn (Zea mays); [18]): 5
- Crabgrass, Large plant response rating [7, 15]: 10
- Plant response rating, Crabgrass, Large [7, 16]: 20
- Plant response rating, Crabgrass, Large [7, 17]: 25
- Crabgrass, Large plant response rating [7, 18]: 20
- Nutsedge, Yellow plant response rating [8, 15]: 5
- Plant response rating, Nutsedge, Yellow [8, 16]: 45
- Plant response rating, Nutsedge, Yellow [8, 17]: 65
- Nutsedge, Yellow plant response rating [8, 18]: 15
- Pigweed plant response rating [9, 15]: 30
- Plant response rating, Pigweed [9, 16]: 65
- Plant response rating, Pigweed [9, 17]: 80
- Pigweed plant response rating [9, 18]: 50
- Oilseed Rape plant response rating [10, 15]: 40
- Plant response rating, Oilseed Rape [10, 16]: 30
- Plant response rating, Oilseed Rape [10, 17]: 50
- Oilseed Rape plant response rating [10, 18]: 55
- Wheat plant response rating [11, 15]: 0
- Plant response rating, Wheat [11, 16]: 0
- Plant response rating, Wheat [11, 17]: 0
- Wheat plant response rating [11, 18]: 0
- Foxtail, Giant plant response rating [12, 15]: 20
- Plant response rating, Foxtail, Giant [12, 16]: 60
- Plant response rating, Foxtail, Giant [12, 17]: 70
- Foxtail, Giant plant response rating [12, 18]: 40
- Johnsongrass plant response rating [13, 15]: 0
- Plant response rating, Johnsongrass [13, 16]: 5
- Plant response rating, Johnsongrass [13, 17]: 40
- Johnsongrass plant response rating [13, 18]: 5
- Blackgrass plant response rating [14, 15]: 0
- Plant response rating, Blackgrass [14, 16]: 5
- Plant response rating, Blackgrass [14, 17]: 10
- Blackgrass plant response rating [14, 18]: 0
